From EP4467154A1, “MEDICINE FOR TREATING OR PREVENTING CANCER” (CHUGAI SEIYAKU KABUSHIKI KAISHA, priority 2022, dated 2023)
Read-outs that look alike come from different tables or passages of the source. Bridge positions count the residues as written; N and C are the ends. Square brackets hold non-standard residues; d marks the D form. Peptide text beside a SMILES is read from it. hPhe(3,5-F2-4-CF3) = N[C@@H](CCc1cc(F)c(C(F)(F)F)c(F)c1)C(=O)O; NEtPhe(4-Me) = CCN[C@@H](Cc1ccc(C)cc1)C(=O)O; NMeGly(cPent) = CN[C@H](C(=O)O)C1CCCC1; NMeD = CN[C@@H](CC(=O)O)C(=O)O; NMeL = CN[C@@H](CC(C)C)C(=O)O; NMeA = CN[C@@H](C)C(=O)O; Ac5c = NC1(C(=O)O)CCCC1; Aze = O=C(O)[C@@H]1CCN1; Sar = CNCC(=O)O

Columns and labels:
[1] = tested on: lung cancer line NCI-H1373 (KRAS-G12C); test: In vivo antitumor activity, NCI-H1373 xenograft model (Example 11); set-up: species or system Nude mice; conditions: compound 1 5 mg/kg orally once a day, TNO155 5 mg/kg orally twice a day, 35 days, Figure 19
From the text: A xenograft model to which lung cancer line NCI-H1373 (KRAS-G12C) was transplanted was used to evaluate in vivo antitumor activity due to combined use of compound 1 and TNO155. Nude mice were subcutaneously transplanted with 5 × 10^6 cells per mouse, and when the tumor volume reached 200 to 300 mm^3, the nude mice were randomized and administration of compound 1 and/or the compound for combined use was started (n = 8). Compound 1 was orally administered once a day and TNO155 was orally administered twice a day for an administration period of 35 days. The doses of the agents were 5 mg/kg for compound 1 and 5 mg/kg for TNO155. Compound 1 was dissolved in 10% DMSO/5% Cremphor EL/85% Distilled water and TNO155 was dissolved in 0.5% Tween 80/0.5% methylcellulose/99% distilled water, and administered. From the tumor volume data on the last measurement day, the tumor growth inhibition rate (Tumor Growth Inhibition %: TGI%) was calculated using the following formulas. […] Tumor growth inhibition rate (TGI%) = (1−TV/CV) × 100 [formula] Tumor volume (mm^3) = 1/2 × major axis (mm) × minor axis (mm) × minor axis (mm) [formula] [formula] • TV: Mean of the amount of change in tumor volume in the compound 1 monotherapy group, the TNO155 monotherapy group, or the combined use group • CV: Mean of the amount of change in tumor volume in the vehicle group

[2] = tested on: NCI-H358; test: Cell growth inhibitory activity, ATP (CellTiter-Glo 2.0), isobologram (Example 2), NCI-H358; type: cell-based, Human; conditions: 144 hours
Protocol: (§1) Human cancer cell lines were seeded on a 384-well round bottom ultra-low attachment plate at a concentration of 750 cells per well and cultured in a 5% carbon gas incubator at 37°C. After 24 hours, CellTiter-Glo 2.0 (Promega Corporation) was added to part of the wells (3 wells), and the amount of ATP (V0) was determined using Envision plate readers (PerkinElmer Co., Ltd.). V0 was taken as the amount of ATP at time 0. DMSO alone or compound 1 and/or the compound for combined use each were added to another three wells. Compound 1 and the compound for combined use were used by serially diluting in 8 steps at a common ratio of 3 with 300 nM and 10 or 3000 nM taken as their respective highest concentrations. […] After culturing for 144 hours after addition of DMSO alone or compound 1 and/or the compound for combined use, the amount of ATP (T and V) was determined for the cells to which DMSO alone was added (DMSO-treated group) or the cells to which compound 1 and/or the compound for combined use was added (compound 1 and/or compound for combined use-treated group). […] The growth inhibition rate (Growth Inhibition %: GI%) was calculated using the following formulas. […] (1−(T−V0)/V0) × 100 [formula] (when T < V0) (1−(T−V0)/(V−V0)) × 100 [formula] […]

[3] = tested on: NCI-H441; test: Cell growth inhibitory activity, ATP (CellTiter-Glo 2.0), isobologram (Example 2), NCI-H441; type: cell-based, Human; conditions: set GI% 100%, 144 hours, test with RMC-4550
Protocol: as §1

[4] = tested on: NCI-H358; conditions: read-out: set GI concentration (concentration as a single drug giving GI 50), set GI% 50%, 144 hours, test with trametinib
Protocol: as §1

[5] = tested on: lung cancer line NCI-H441 (KRAS-G12C); test: In vivo antitumor activity, NCI-H441 xenograft model (Example 12); set-up: species or system Nude mice; conditions: compound 1 3 mg/kg or 5 mg/kg, compound 2 0.25 mg/kg, orally once a day, 14 days, Figure 20
Protocol: (§2) A xenograft model to which lung cancer line NCI-H441 (KRAS-G12C) or NCI-H1373 (KRAS-G12C) was transplanted was used to evaluate in vivo antitumor activity due to combined use of compound 1 and compound 2. Nude mice were subcutaneously transplanted with 5 × 10^6 cells per mouse, and when the tumor volume reached 200 to 300 mm^3, randomization was performed and administration of compound 1 and/or the compound for combined use was started (n = 5). Compound 1 and compound 2 were orally administered once a day for an administration period of 14 days. The doses of the agents were 3 mg/kg or 5 mg/kg for compound 1 and 0.25 mg/kg for compound 2. Compound 1 was dissolved in 10% DMSO/5% Cremphor EL/85% Distilled water and compound 2 was dissolved in 10% DMSO/10% Cremphor EL/15% PEG400/15% HPBCD/50% distilled water, and administered. From the tumor volume data on the last measurement day, the tumor growth inhibition rate (Tumor Growth Inhibition %: TGI%) was calculated using the following formulas. […] Tumor growth inhibition rate (TGI%) = (1−TV/CV) × 100 [formula] Tumor volume (mm^3) = 1/2 × major axis (mm) × minor axis (mm) × minor axis (mm) [formula] [formula] • TV: Mean of the amount of change in tumor volume in the compound 1 monotherapy group, the compound 2 monotherapy group, or the combined use group • CV: Mean of the amount of change in tumor volume in the vehicle group

[6] = tested on: NCI-H1373 (KRAS-G12C); test: In vivo antitumor activity, NCI-H1373 xenograft model (Example 12); set-up: species or system Nude mice; conditions: compound 1 3 mg/kg or 5 mg/kg, compound 2 0.25 mg/kg, orally once a day, 14 days, Figure 21
Protocol: as §2

`C[C@@H]1OCC2(CCN(c3cnc(Sc4ccnc(N)c4Cl)c(N)n3)CC2)[C@@H]1N` [TNO155, (3S,4S)-8-(6-amino-5-((2-amino-3-chloropyridine-4-yl)thio)pyrazine-2-yl)-3-methyl-2-oxa-8-azaspiro[4.5]decane-4-amine] was tested, and the “tumor volume, compared with vehicle group” value [1] was “increase in tumor volume suppressed”.
With `CC(=O)Nc1cccc(-n2c(=O)n(C3CC3)c(=O)c3c(Nc4ccc(I)cc4F)n(C)c(=O)c(C)c32)c1` [trametinib, N-[3-[3-cyclopropyl-5-(2-fluoro-4-iodo-phenylamino)-6,8-dimethyl-2,4,7-trioxo-3,4,6,7-tetrahydro-2H-pyrido[4,3-d]pyrimidine-1-yl]phenyl]acetamide] the GI50 ([2]; Homo sapiens, set GI% 50%, single drug, test with trametinib, read-out: set GI concentration (concentration as a single drug giving GI 50)) was 0.35 nM.
`Cc1nc(N2CCC3(CC2)CO[C@@H](C)[C@H]3N)c(CO)nc1-c1cccc(Cl)c1Cl` [RMC-4550, 3-[(3S,4S)-4-amino-3-methyl-2-oxa-8-azaspiro[4.5]deca-8-yl]-6-(2,3-dichlorophenyl)-5-methyl-2-pyrazinemethanol] was tested, and the “set GI concentration (concentration as a single drug giving GI 100)” value [3] was 0.35 µM and the “set GI concentration (concentration as a single drug giving GI 155)” value ([2]; set GI% 155%, test with RMC-4550) was 0.55 µM.
With `CC[C@H](C)[C@@H]1NC(=O)[C@H](CC(C)C)N(C)C(=O)C[C@@H](C(=O)N(C)C)N(C)C(=O)[C@H](C2CCCC2)N(C)C(=O)C2(CCCC2)NC(=O)[C@@H]2CCCN2C(=O)[C@H](CCc2cc(F)c(C(F)(F)F)c(F)c2)NC(=O)CN(C)C(=O)[C@H](Cc2ccc(C)cc2)N(CC)C(=O)[C@@H]2CCN2C(=O)[C@H](C)N(C)C1=O` [compound 1, (5S,8S,11S,15S,18S,23aS,29S,35S,37aS)-8-((S)-sec-butyl)-18-cyclopentyl-29-(3,5-difluoro-4-(trifluoromethyl)phenethyl)-36-ethyl-11-isobutyl-N,N,5,6,12,16,19,33-octamethyl-35-(4-methylbenzyl)-4,7,10,13,17,20,23,28,31,34,37-undecaoxotetratriacontahydro-2H,4H-spiro[azeto[2,1-u]pyrrolo[2,1-i][1,4,7,10,13,16,19,22,25,28,31]undecaazacyclotetratriacontyne-21,1'-cyclopentane]-15-carboxamide] ([NMeL]I[NMeA][Aze][NEtPhe(4-Me)][Sar][hPhe(3,5-F2-4-CF3)]P[Ac5c][NMeGly(cPent)][NMeD]-NMe2; lactam N-11) the GI50 [4] was 4.6 nM.
For `CNS(=O)(=O)Nc1nccc(Cc2cc(C(N)=O)c(Nc3ccc(C4CC4)cc3F)c(F)c2F)c1F` [compound 2, 2-(4-cyclopropyl-2-fluoro-anilino)-3,4-difluoro-5-[[3-fluoro-2-(methylsulfamoylamino)-4-pyridyl]methyl]benzamide], the “tumor volume, compared with vehicle group” value [5] was “increase in tumor volume suppressed” and the “tumor volume, compared with vehicle group” value [6] was “increase in tumor volume suppressed”.
